Experimental data: patent US3971779A, “7-[2-(5-Amino-1,3,4-thiadiazol-2-ylthio)acetamido]cephalosporins” (American Home Products Corporation, priority 1975, dated 1976)
Converted amounts (≈) assume the structure as drawn. Like-named read-outs stand apart in the source and are kept apart here.

Key:
[1] = test system: Citrobacter freundii 8090; assay: agar serial dilution MIC; type: cell-based; details: Example 4
Protocol: (§1) A stock solution of 7-[2-(4,5-dihydro-5-imino-1,3,4-thiadiazol-2-ylthio)acetamido]cephalosporanic acid as the hydrobromic acid addition salt containing 2,500 μg. of the active moiety is prepared in phosphate buffer. Two fold serial dilutions are prepared with phosphate buffer. One milliliter (ml.) quantities of each dilution are incorporated in 9 ml. seen agar in sterile Petri plates. The hardened surface is innoculated with test organisms using a Steers replicating device. The plates are incubated at 35° C. for 18 hours.
(§2) The test organisms are Bacillus subtilis (BA SU) 6633; Staphylococcus aureus (ST AU) 6538P, Smith CHP, and 3-180; Mycobacterium smegmatis (MY SM) 10143; Neisseria catarrhalis (NE CA) 8193; Pseudonomas aeruginosa (PS AE) 10145; Escherichia coli (ES CO) 9637, and 920; Escherichia intermedia (ES IN) 65-1; Salmonella paratyphi (SA PA) 11737; Enterobacter aerogenes (EN AE) 13048; Klebsiella pneumoniae (KL PN) 10031; Bordetella bronchiseptica (BO BR) 4617; Proteus vulgaris (PR VU) 6896; and Herellea species (HE SP) 9955. These organisms are grown for 18 hours in Brain heart infusion at 35° C. Prior to use the cultures are diluted 10 fold with the infusion, except in the case of Mycobacterium. The latter is grown in Emerson's broth for 5 days at 28° C. in shaker flasks and used undiluted.
(§3) Following the procedure of Example 2 but substituting the organisms listed below the same preparation of 7-[2-(4,5-dihydro-5-imino-1,3,4-thiadiazol-2-ylthio)acetamido]cephalosporanic acid (Compound A) as used in Example 3, a third sample of the same compound, prepared as described in Example 1 (Compound B) and 7-[2-(5-acetamido-1,3,4-thiadiazol-2-ylthio)acetamido]cephalosporanic acid (Compound C) are tested to obtain the results shown: […]

[2] = test system: Edwardsiella tarda 15947; assay: agar serial dilution MIC; type: cell-based
Protocol: as §1, §2, §3

[3] = test system: Enterobacter agglomerans 27155; assay: agar serial dilution MIC; type: cell-based
Protocol: as §1, §2, §3

[4] = test system: Enterobacter cloacae 13047; assay: agar serial dilution MIC; type: cell-based; details: Example 4
Protocol: as §1, §2, §3

[5] = test system: Enterobacter havniae 11604; assay: agar serial dilution MIC; type: cell-based; details: Example 4
Protocol: as §1, §2, §3

[6] = test system: Klebsiella rhinoscleromatis 13884; assay: agar serial dilution MIC; type: cell-based; details: Klebsiella pneumoniae, Example 4
Protocol: as §1, §2, §3

[7] = test system: Proteus mirabilis 9921; assay: agar serial dilution MIC; type: cell-based; details: Example 4
Protocol: as §1, §2, §3

[8] = test system: Proteus rettgeri 9918; assay: agar serial dilution MIC; type: cell-based; details: Providencia rettgeri, Example 4
Protocol: as §1, §2, §3

[9] = test system: Providencia alcalifaciens 9886; assay: agar serial dilution MIC; type: cell-based; details: Example 4
Protocol: as §1, §2, §3

[10] = test system: Salmonella typhi 19430; assay: agar serial dilution MIC; type: cell-based; details: Salmonella enterica
Protocol: as §1, §2, §3

[11] = test system: Serratia liquefaciens 27592; assay: agar serial dilution MIC; type: cell-based; details: Example 4
Protocol: as §1, §2, §3

[12] = test system: Serratia marcescens 13880; assay: agar serial dilution MIC; type: cell-based; details: Example 4
Protocol: as §1, §2, §3

[13] = test system: Serratia rubidae 27593; assay: agar serial dilution MIC; type: cell-based; details: Example 4
Protocol: as §1, §2, §3

[14] = test system: Shigella flexneri 12025; assay: agar serial dilution MIC; type: cell-based; details: Example 4
Protocol: as §1, §2, §3

[15] = test system: Shigella sonnei 11060; assay: agar serial dilution MIC; type: cell-based; details: Example 4
Protocol: as §1, §2, §3

[16] = test system: Staphylococcus aureaus CHP; assay: mice infected intraperitoneally, single dose six hours post-infection, deaths and CD50; type: in vivo; details: for ED50: Staphylococcus, po, single dose, mice; for Deaths / Total No. Treated: oral
Protocol: Mice are infected intraperitoneally with a standardized suspension of Staphylococcus aureaus CHP in 5% gastric mucin. The animals are randomized. Six hours post-infection a single dose of the compound indicated is administered by the route indicated. The animals are observed for a 30 day period and deaths are recorded daily. The CD50 for 14 and 30 days as determined by the method of Reed and Muench, American Journal of Hygiene (1938), for each compound is tabulated:
7-[2-(5-Acetylamino-1,3,4-thiadiazol-2-ylthio)acetamido]cephalosporanic acid is tested as described in Example 5.

CC(=O)OCC1=C(C(=O)O)N2C(=O)C(NC(=O)CSc3n[nH]c(=N)s3)C2SC1 (stereo not shown) [7-[2-(4,5-Dihydro-5-Imino-1,3,4-Thiadiazol-2-ylthio)Acetamido]Cephalosporanic Acid]
MIC [1]: > 250 µg/mL | MIC ([2]; Edwardsiella tarda, 15947, Example 4): 31.3 µg/mL (≈ 70.3 µM) | MIC ([2]; Edwardsiella tarda, 15947, Example 4, read-out: MIC): 15.6 µg/mL (≈ 35 µM) | MIC ([3]; Pantoea agglomerans, 27155, Example 4): 7.81 µg/mL (≈ 17.5 µM) | MIC ([3]; Pantoea agglomerans, 27155, Example 4, read-out: MIC): 15.6 µg/mL (≈ 35 µM) | MIC [4]: > 250 µg/mL | MIC [5]: > 250 µg/mL | MIC [6]: > 250 µg/mL | MIC [7]: 7.81 µg/mL (≈ 17.5 µM) | MIC [8]: 250 µg/mL (≈ 561 µM) | MIC [9]: > 250 µg/mL | MIC [10]: 1.95 µg/mL (≈ 4.38 µM) | MIC [11]: > 250 µg/mL | MIC [12]: > 250 µg/mL | MIC [13]: > 250 µg/mL | MIC ([14]; listed as A): 31.3 µg/mL (≈ 70.3 µM) | MIC ([14]; listed as B): 7.81 µg/mL (≈ 17.5 µM) | MIC [15]: 62.5 µg/mL (≈ 140 µM) | ED50 ([16]; 336 h, 14 Days): 3.21 mg/kg | ED50 ([16]; 720 h, 30 Days): 3.4 mg/kg | Deaths / Total No. Treated ([16]; 100 mg/kg., 14 Days): 10/10 | Deaths / Total No. Treated ([16]; 100 mg/kg., 30 Days): 10/10 | Deaths / Total No. Treated ([16]; 200 mg/kg., 14 Days): 4/10 | Deaths / Total No. Treated ([16]; 200 mg/kg., 30 Days): 4/10 | Deaths / Total No. Treated ([16]; 400 mg/kg., 14 Days): 0/10 | Deaths / Total No. Treated ([16]; 400 mg/kg., 30 Days): 0/10 | Deaths / Total No. Treated ([16]; 800 mg/kg., 14 Days): 0/10 | Deaths / Total No. Treated ([16]; 800 mg/kg., 30 Days): 1/10
